Legend:
FTase = FTase (Homo sapiens, UniProt P49354+P49356); test: FTase inhibition (results not shown); format: biochemical; details: concentrations up to 50 μM
[1] = test system: p42/44 MAPK phosphorylation in DKOB8 colon cancer cells; test: Phosphoprotein analysis: EGF-stimulated p42/44 MAPK; format: cell-based; details: 1 μM, three days, 1% serum, EGF 10 min
Description: FIGS. 3A and 3B. Impact of cysmethynil treatment on Ras localization and signaling. FIG. 3A. Mislocalization of GFP Ras in cysmethynil treated cells. […] Live cells were imaged on a spinning disk confocal microscope. FIG. 3B. Impact of cysmethynil treatment on EGF-stimulated protein phosphorylation. […] Where indicated, cells were treated with EGF for the final 10 min prior to harvesting. Cell lysates containing equal amounts of protein were resolved on a 13% SDS-polyacrylamide gel and probed with antiphospho-Akt, antiphospho-p42/44 MAPK or anti-β-tubulin antibody as indicated. […] Half of the wells were then treated with EGF (10 ng/ml) and half with vehicle for 10 min. Cells were rinsed with PBS and harvested in SDS-PAGE loading buffer. Total cell lysates (30 μg protein) were resolved on 4-20% Tris-glycine polyacrylamide gels (Invitrogen). Proteins were transferred to nitrocellulose and probed with a mix of anti-phospho-Akt and anti-phospho-p42/44 MAPK antibodies, or with anti-tubulin or anti-phospho NFκB antibody (Cell Signaling Technology) as indicated. Visualization was performed with alkaline phosphatase (Promega, Madison, Wis.) as per the manufacturer's instructions.

[2] = test system: Icmt+/+ mouse embryonic fibroblasts; test: Cell growth determination, wild-type fibroblasts; format: cell-based; details: 15, 20, 30 μM; 10% serum; six days
Description: FIGS. 2A-2C. […] Media and drug were replaced daily, and cell growth was monitored for six days. Data represent the mean and standard deviation of four replicate wells. (FIG. 2A) Icmt^+/+ cells; (FIG. 2B) Icmt^−/− cells; (C) Icmt^−/− cells stably transfected with a gene expressing human ICMT (Icmt^−/−/ICMT cells).
Cell growth assays were performed in a 96-well plate format. Briefly, 500 to 1000 cells were plated into 96-well plates. After the cells were allowed to attach for 24 h, media was removed and replaced with media containing either compound or vehicle. Media and drug were replaced every 24 h throughout the assay. Cell determinations were made at the times indicated in the respective figure by adding 19 μl of CellTiter 96 AqueousOne solution to each well followed by incubation of the plates in the dark at 37° C. for two hr after which the absorbance at 490 nm was read. Background absorbance from blank wells containing only media with compound or vehicle was subtracted from each test well. Typically, 3-6 replicate wells were employed for each point in each assay.

[3] = test system: GFP-tagged K-Ras in MDCK cells; test: Localization of GFP-K-Ras in MDCK cells; format: cell-based; details: 10, 20, 30 μM; 72 h
Description: FIGS. 3A and 3B. Impact of cysmethynil treatment on Ras localization and signaling. FIG. 3A. Mislocalization of GFP Ras in cysmethynil treated cells. […] Live cells were imaged on a spinning disk confocal microscope. FIG. 3B. Impact of cysmethynil treatment on EGF-stimulated protein phosphorylation. […] Where indicated, cells were treated with EGF for the final 10 min prior to harvesting. Cell lysates containing equal amounts of protein were resolved on a 13% SDS-polyacrylamide gel and probed with antiphospho-Akt, antiphospho-p42/44 MAPK or anti-β-tubulin antibody as indicated. MDCK cells stably expressing GFP-H-Ras, GFP-K-Ras or GFP-N-Ras were grown on 35 mm coverslip dishes (MatTek Corporation, Ashland, Mass.) treated with poly-D-lysine. MDCK cells expressing […] were prepared by transient transfection of the Yes-GFP construct (McCabe and Berthiaume, Mol Cell Biol 10:3771-3786 (1999)) using Superfect reagent (Quiagen, Valencia, Calif.) following the manufacturer's instructions. […] Cells were imaged 72 h after drug treatment (24 h for transiently transfected cells) on an Olympus IX70 inverted microscope (Melville, N.Y.) with an UltraView spinning-disk confocal (PerkinElmer LAS, Wellesley, Mass.) and a Krypton/Argon laser, 488 nm line, attached to a cooled-CCD camera (Hamamatsu, Bridgewater, N.J.). […]

GGTase-I = GGTase-I (Homo sapiens, UniProt P49354+P53609); test: GGTase-I inhibition (results not shown); format: biochemical; details: concentrations up to 50 μM
[4] = test system: DKOB8/GFP-Icmt colon cancer cells; test: Soft agar growth assay, DKOB8/GFP-Icmt; format: cell-based; details: 20 μM, three weeks; elevated Icmt activity
Description: (§1) FIGS. 4A-4C. Overexpression of Icmt rescues EGF-stimulated MAPK activation and anchorage-independent growth in cysmethynil-treated cells. FIG. 4A. Creation of cell lines stably overexpressing Icmt. DKOB8 cells were engineered to stably express either GFP alone or a GFP-Icmt fusion protein. Membrane fractions from GFP and GFP-ICMT expressing lines were assayed for Icmt activity using the BFC assay. FIG. 4B. Overexpression of Icmt restores EGF-stimulated MAPK activation in cysmethynil-treated cells. […] Where indicated, cells were treated with EGF for the final 10 min prior to harvesting. Cell lysates containing equal amounts of protein were resolved on a 13% SDS-polyacrylamide gel and probed with antiphospho-p42/44 MAPK or, as a control, antiphospho NFκB antibody as indicated. FIG. 4C. […] After 3 weeks of growth, colonies were stained with MTT and imaged. Soft agar culture media was prepared with 10% FBS in 1× minimum essential medium (MEM) alpha. […] Cells were harvested by trypsinization at ˜80% confluence, mixed into top agar (10,000 cells/plate; 0.3% noble agar in soft agar culture media) and poured onto prepared plates. […] For each condition, triplicate samples (each consisting of three plates) were prepared. […]

[5] = test system: Rac1 in MDA-MB-231 breast cancer cells; test: Immunoblot of steady-state Rac level; format: cell-based; details: 20 μM, 6 day treatment
Description: (§2) The impact of Icmt inhibition on function of the geranylgeranylated GTPases Rho and Rac in cells has been examined. This study was carried out in MD-MBA-231 breast cancer cells. Tumorigenesis and metastatic behavior of these cells is dependent on high levels of Rho GTPases in particular. […] Cells were harvested and lysates containing equal amounts of protein were resolved by SDS-PAGE and subjected to immunoblot analysis with specific antibodies to RhoA (FIG. 7A), or Rac1 (FIG. 7B). As a control, immunoblot analysis for α-tubulin was carried out on all samples.

[6] = test system: DKOB8/GFP colon cancer cells; test: Soft agar growth assay, DKOB8/GFP; format: cell-based; details: three weeks
Description: as §1

[7] = test system: α-tubulin in MDA-MB-231 breast cancer cells; test: Immunoblot of control protein α-tubulin; format: cell-based; details: 20 μM, 6 day treatment
Description: as §2

## CCCCCCCCn1cc(CC(N)=O)c2cc(-c3cccc(C)c3)ccc21 [cysmethynil, 2-[5-(3-methylphenyl)-1-octyl-1H-indol-3-yl]acetamide]
FTase
  inhibition of FTase: did not inhibit
[1]
  EGF-induced increase in MAPK: almost completely blocked
[2]
  cell growth: dose-dependent inhibition of growth
[3]
  localization of GFP-K-Ras: dose-dependent mislocalization
GGTase-I
  inhibition of GGTase-I: did not inhibit
[4]
  ability of cells to form colonies in soft agar: rescue the ability of the cells to form colonies
[5]
  Rac levels reduced: > 80%
[6]; 20 μM
  ability of cells to form colonies in soft agar: dramatically reducing the ability of cells to form colonies
[6]; 10 or 20 μM
  ability to grow in soft agar: significantly impaired
[7]
  level of control protein α-tubulin: only marginally affected
